Assay results taken from US8124610B2, “Sodium channel inhibitors” (Icagen Inc., priority 2007, dated 2012).

How the values were obtained:
hSCN9A = molecular target: T1, hSCN9A (Homo sapiens, UniProt Q15858); test: Whole-cell patch-clamp electrophysiology (conventional or PatchXpress), HEK cells expressing hSCN9A, estimated IC-50; assay type: cell-based; settings: estimated IC-50, HEK cells expressing hSCN9A; class symbols or bounds; read-out: SCN9A EIC-50
T1 construct: expressed in transfected cells
Outline: (§1)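 Stably transfected HEK cells recorded by whole-cell voltage clamp (manual or PatchXpress) at 22–24 °C in pH 7.4 HEPES-buffered extracellular solution. Cells held at the empirically determined inactivation V1/2 after an 8 s prepulse, then stepped to 0 mV for 20 ms; % inhibition from current amplitude before vs after compound.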

hSCN3A = molecular target: T2, hSCN3A (Homo sapiens, UniProt Q9NY46); test: Whole-cell patch-clamp electrophysiology (conventional or PatchXpress), HEK cells expressing hSCN3A, estimated IC-50; assay type: cell-based; settings: estimated IC-50, HEK cells expressing hSCN3A; class symbols or bounds; read-out: SCN3A EIC-50
T2 construct: expressed in transfected cells
Outline: as §1

Nav1.1 = Nav1.1 (Homo sapiens, UniProt P35498); settings: read-out: TTX IC-50; cited from earlier work
Nav1.9 = Nav1.9 (Homo sapiens, UniProt Q9UI33); settings: read-out: TTX IC-50; cited from earlier work
Nav1.3 = Nav1.3 (Homo sapiens, UniProt Q9NY46); settings: read-out: TTX IC-50; cited from earlier work
Nav1.6 = Nav1.6 (Homo sapiens, UniProt Q9UQD0); settings: read-out: TTX IC-50; cited from earlier work
Nav1.2 = Nav1.2 (Homo sapiens, UniProt Q99250); settings: read-out: TTX IC-50; cited from earlier work
Nav1.8 = Nav1.8 (Homo sapiens, UniProt Q9Y5Y9); settings: read-out: TTX IC-50; cited from earlier work
[1] = cited from earlier work

T2 sequence (Q9NY46 whole entry): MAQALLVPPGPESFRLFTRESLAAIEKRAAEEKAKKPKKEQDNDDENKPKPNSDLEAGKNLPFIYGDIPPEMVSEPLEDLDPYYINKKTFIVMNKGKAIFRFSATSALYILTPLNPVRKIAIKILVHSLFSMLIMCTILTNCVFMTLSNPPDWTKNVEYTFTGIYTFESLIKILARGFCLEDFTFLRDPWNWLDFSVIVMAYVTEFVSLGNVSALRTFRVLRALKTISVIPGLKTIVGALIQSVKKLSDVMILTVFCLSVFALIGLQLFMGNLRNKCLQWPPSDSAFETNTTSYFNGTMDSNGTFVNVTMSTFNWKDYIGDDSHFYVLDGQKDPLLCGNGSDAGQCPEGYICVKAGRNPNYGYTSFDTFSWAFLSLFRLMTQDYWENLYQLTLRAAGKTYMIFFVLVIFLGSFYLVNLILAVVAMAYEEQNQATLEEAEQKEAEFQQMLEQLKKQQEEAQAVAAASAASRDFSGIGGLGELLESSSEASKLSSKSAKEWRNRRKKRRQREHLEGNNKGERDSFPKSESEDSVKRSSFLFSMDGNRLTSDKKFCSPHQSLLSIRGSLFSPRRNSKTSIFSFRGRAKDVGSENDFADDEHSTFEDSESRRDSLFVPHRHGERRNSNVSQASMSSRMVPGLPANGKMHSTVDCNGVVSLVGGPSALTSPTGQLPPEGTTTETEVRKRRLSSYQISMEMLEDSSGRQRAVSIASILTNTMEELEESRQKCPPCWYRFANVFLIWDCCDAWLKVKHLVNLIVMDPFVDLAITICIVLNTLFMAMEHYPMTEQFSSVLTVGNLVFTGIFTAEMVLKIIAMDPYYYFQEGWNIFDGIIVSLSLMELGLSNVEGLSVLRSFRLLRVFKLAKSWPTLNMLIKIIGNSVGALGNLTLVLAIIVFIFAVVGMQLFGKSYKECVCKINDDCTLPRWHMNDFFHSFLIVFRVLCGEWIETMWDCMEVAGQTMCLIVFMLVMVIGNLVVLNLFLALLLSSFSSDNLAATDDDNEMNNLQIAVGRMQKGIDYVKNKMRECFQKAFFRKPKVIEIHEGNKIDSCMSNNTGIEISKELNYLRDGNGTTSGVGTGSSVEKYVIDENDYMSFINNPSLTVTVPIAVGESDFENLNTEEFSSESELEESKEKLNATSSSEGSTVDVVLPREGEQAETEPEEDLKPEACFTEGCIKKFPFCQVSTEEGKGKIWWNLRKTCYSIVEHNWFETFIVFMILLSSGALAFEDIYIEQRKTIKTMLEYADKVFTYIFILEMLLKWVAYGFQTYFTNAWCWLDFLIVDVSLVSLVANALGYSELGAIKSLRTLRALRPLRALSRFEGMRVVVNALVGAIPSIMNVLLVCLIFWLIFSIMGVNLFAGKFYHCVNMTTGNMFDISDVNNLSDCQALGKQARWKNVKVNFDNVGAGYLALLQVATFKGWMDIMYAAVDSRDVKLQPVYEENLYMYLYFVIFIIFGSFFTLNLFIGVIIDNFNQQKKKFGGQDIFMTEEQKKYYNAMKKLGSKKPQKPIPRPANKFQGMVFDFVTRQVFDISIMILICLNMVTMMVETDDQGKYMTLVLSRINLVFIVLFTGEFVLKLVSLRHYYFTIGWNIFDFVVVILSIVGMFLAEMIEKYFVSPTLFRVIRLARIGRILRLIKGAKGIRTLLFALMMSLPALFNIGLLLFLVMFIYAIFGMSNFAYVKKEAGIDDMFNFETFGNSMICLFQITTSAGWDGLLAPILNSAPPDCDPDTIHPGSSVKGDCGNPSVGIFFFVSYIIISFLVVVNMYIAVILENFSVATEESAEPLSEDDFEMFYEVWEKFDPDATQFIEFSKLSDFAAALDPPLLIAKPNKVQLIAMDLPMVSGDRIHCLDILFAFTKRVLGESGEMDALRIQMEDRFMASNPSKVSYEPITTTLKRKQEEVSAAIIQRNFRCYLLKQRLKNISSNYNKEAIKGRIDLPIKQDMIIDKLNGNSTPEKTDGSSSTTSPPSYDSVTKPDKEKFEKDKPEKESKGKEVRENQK
T1 sequence (Q15858 whole entry): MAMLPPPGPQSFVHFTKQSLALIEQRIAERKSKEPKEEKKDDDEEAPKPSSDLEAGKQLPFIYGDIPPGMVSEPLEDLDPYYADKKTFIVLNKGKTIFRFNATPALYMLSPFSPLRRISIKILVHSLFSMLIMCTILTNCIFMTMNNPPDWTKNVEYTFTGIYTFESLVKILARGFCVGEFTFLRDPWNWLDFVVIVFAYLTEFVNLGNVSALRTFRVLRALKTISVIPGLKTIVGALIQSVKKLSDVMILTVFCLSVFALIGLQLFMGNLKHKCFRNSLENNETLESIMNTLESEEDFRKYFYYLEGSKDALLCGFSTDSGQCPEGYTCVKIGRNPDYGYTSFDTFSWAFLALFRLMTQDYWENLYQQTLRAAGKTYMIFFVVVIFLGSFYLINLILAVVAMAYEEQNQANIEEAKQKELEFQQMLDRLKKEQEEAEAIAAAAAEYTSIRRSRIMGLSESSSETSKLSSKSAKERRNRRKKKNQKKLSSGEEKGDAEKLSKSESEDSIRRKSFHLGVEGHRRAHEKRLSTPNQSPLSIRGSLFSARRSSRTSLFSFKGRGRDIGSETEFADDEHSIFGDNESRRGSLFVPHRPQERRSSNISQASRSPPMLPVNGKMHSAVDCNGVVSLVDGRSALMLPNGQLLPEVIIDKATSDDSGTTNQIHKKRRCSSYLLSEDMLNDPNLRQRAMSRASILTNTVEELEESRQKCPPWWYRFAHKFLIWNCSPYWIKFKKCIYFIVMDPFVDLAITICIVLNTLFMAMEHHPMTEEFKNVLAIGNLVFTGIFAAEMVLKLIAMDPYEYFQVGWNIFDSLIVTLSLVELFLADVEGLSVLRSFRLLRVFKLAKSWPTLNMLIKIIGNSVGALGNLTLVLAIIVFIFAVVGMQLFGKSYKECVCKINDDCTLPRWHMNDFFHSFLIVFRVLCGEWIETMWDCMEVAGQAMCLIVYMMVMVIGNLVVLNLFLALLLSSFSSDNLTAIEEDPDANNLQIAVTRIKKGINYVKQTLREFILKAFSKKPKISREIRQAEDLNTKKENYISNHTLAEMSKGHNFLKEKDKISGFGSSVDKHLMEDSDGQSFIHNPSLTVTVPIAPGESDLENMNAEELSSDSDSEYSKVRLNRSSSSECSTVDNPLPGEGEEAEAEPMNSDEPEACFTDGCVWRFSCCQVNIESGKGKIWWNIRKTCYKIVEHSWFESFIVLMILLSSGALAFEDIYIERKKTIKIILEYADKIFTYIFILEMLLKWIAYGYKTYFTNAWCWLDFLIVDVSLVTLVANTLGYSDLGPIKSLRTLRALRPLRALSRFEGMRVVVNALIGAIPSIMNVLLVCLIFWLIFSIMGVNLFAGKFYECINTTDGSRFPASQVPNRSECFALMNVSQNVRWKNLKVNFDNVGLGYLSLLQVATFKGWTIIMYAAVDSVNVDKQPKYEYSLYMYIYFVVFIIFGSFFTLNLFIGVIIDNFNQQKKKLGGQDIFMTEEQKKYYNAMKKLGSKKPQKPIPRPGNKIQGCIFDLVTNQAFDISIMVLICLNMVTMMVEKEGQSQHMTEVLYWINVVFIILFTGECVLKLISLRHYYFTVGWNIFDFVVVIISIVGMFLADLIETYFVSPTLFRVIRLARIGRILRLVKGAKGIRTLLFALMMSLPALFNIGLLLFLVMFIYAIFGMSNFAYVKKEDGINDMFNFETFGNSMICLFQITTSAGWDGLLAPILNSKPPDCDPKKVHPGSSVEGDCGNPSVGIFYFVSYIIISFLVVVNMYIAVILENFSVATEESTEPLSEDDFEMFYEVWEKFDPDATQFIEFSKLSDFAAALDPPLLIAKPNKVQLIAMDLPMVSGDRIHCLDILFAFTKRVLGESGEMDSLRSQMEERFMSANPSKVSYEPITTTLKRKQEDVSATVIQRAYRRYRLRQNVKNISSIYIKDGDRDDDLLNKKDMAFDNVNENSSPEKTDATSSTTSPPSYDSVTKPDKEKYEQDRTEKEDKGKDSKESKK
Chain of Nav1.3 (Q9NY46 whole entry, looked up): as the sequence (Q9NY46 whole entry) above

SMILES | IC50 (hSCN9A) [µM] | IC50 (hSCN3A) [µM] | other results
Cc1cc(Nc2ccc(S(=O)(=O)Nc3ncc(C#N)s3)c(F)c2)n(-c2ccccc2)n1 [Compound 245, N-(5-cyanothiazol-2-yl)-2-fluoro-4-(3-methyl-1-phenyl-1H-pyrazol-5-ylamino)benzenesulfonamide] | > 1 | 2 to 10 | 
O=S(=O)(Nc1nccs1)c1ccc(Nc2ccn(Cc3ccc(Cl)cc3)n2)cc1Cl [Compound 263, 2-chloro-4-(1-(4-chlorobenzyl)-1H-pyrazol-3-ylamino)-N-(thiazol-2-yl)benzenesulfonamide] | < 2 | < 2 | 
N#Cc1cc(Nc2ccn(Cc3ccc(Cl)cc3)n2)ccc1S(=O)(=O)Nc1nccs1 [Compound 264, 4-(1-(4-chlorobenzyl)-1H-pyrazol-3-ylamino)-2-cyano-N-(thiazol-2-yl)benzenesulfonamide] | < 2 | < 2 | 
O=S(=O)(Nc1nccs1)c1ccc(Nc2ccn(Cc3ccc(Cl)cc3)n2)cc1OC(F)(F)F [Compound 266, 4-(1-(4-chlorobenzyl)-1H-pyrazol-3-ylamino)-N-(thiazol-2-yl)-2-(trifluoromethoxy)benzenesulfonamide] | > 1 | 2 to 10 | 
Cc1cc(S(=O)(=O)Nc2nccs2)c(F)cc1Nc1ccn(Cc2ccc(Cl)cc2)n1 [Compound 269, 4-(1-(4-chlorobenzyl)-1H-pyrazol-3-ylamino)-2-fluoro-5-methyl-N-(thiazol-2-yl)benzenesulfonamide] | < 2 | < 2 | 
COc1ccc(C(=O)Cn2ncc3cc(S(=O)(=O)Nc4nccs4)ccc32)c(OC)c1 [Compound 276, 1-(2-(2,4-dimethoxyphenyl)-2-oxoethyl)-N-(thiazol-2-yl)-1H-indazole-5-sulfonamide] | > 1 | < 2 | 
COc1ccc(C(=O)Cn2cc3cc(S(=O)(=O)Nc4nccs4)ccc3n2)c(OC)c1 [Compound 277, 2-(2-(2,4-dimethoxyphenyl)-2-oxoethyl)-N-(thiazol-2-yl)-2H-indazole-5-sulfonamide] | < 2 | > 1 | 
O=C(Cn1ncc2cc(S(=O)(=O)Nc3nccs3)ccc21)c1ccc(F)cc1 [Compound 280, 1-(2-(4-fluorophenyl)-2-oxoethyl)-N-(thiazol-2-yl)-1H-indazole-5-sulfonamide] | 2 to 10 | 2 to 10 | 
NC1=N[C@H](O)[C@H]2[C@H]3O[C@]4(O)O[C@@H]([C@@H](O)[C@@]2(N1)[C@@H]4O)[C@]3(O)CO [TTX, tetrodotoxin] |  |  | IC50 (Nav1.1): 0.01 µM; IC50 (Nav1.9): 1 µM; IC50 (Nav1.3): 0.015 µM; IC50 (Nav1.6): 0.006 µM; IC50 (Nav1.2): 0.01 µM; IC50 (Nav1.8): 50 µM
NCC1(CC(=O)O)CCCCC1 [gabapentin] |  |  | patients that respond to gabapentin treatment for neuropathic pain [1]: 30%
